Like-named read-outs stand apart in the source and are kept apart here.
Legend:
SARS-CoV-2 [1] = assay: SARS-CoV-2 plaque assay in infected Vero E6 cells; assay type: cell-based; details: for EC50: Severe acute respiratory syndrome coronavirus 2, plaque assay, means ± SD, n = 9, read-out: EC50, concentration reducing SARS-CoV-2 replication in Vero cells by 50%
SARS-CoV-2 nsp13 [2] = target: T1, SARS-CoV-2 nsp13 (Severe acute respiratory syndrome coronavirus 2, UniProt P0DTD1); assay: SARS-CoV-2 nsp13 unwinding-associated activity assay; assay type: biochemical; details: for IC50: SARS-CoV-2 nsp13-associated unwinding activity, means ± SD from two experiments in triplicate, read-out: Activity in enzyme assay IC50 Unwinding BSA-TCEP; for remaining activity at 30 µM: given in brackets beside IC50 >30 μM, read-out: Percentage of enzymatic residual activity, unwinding
SARS-CoV-2 nsp13 [3] = target: T1, SARS-CoV-2 nsp13; assay: SARS-CoV-2 nsp13 ATPase-associated activity assay; assay type: biochemical; details: for IC50 / Activity in enzyme assay IC50 ATPase BSA-TCEP: SARS-CoV-2 nsp13-associated ATPase activity, means ± SD from two experiments in triplicate; for IC50: read-out: Activity in enzyme assay IC50 ATPase BSA-TCEP; for remaining activity at 30 µM: given in brackets beside IC50 >30 μM, read-out: Percentage of enzymatic residual activity, ATPase
in vitro = details: African green monkey
SARS-CoV-2 nsp13 [4] = target: T1, SARS-CoV-2 nsp13; assay: Mode-of-action assay (incubation-dependent potency, covalent/noncovalent); assay type: biochemical; details: for IC50: read-out: IC50 at time-point
SARS-CoV-2 [5] = details: read-out: EC50 antiviral activity; cited from earlier work
SARS-CoV-2 nsp13 [6] = target: T1, SARS-CoV-2 nsp13; details: read-out: IC50 vs unwinding; cited from earlier work

Row | Structure (SMILES) | IC50 (SARS-CoV-2 nsp13 [2]) [µM] | IC50 (SARS-CoV-2 nsp13 [3]) [µM] | remaining activity at 30 µM (SARS-CoV-2 nsp13 [3]) [%] | also measured
1 | CCOC(=O)/C(O)=C/C(=O)/C=C/c1cn(-c2ccc(Cl)cc2)c2ccccc12 [Compound 6f] | 2.05 ± 0.03 | 3.39 ± 0.11 | – | SI = CC50/EC50 (SARS-CoV-2 [1]): >12; EC50 (SARS-CoV-2 [1]): 8 ± 2.19 µM; CC50 (in vitro): > 100 µM
2 | CCOC(=O)/C(O)=C/C(=O)/C=C/c1cn(-c2ccc(C#N)cc2)c2ccccc12 [Compound 6g] | 6.26 ± 0.65 | 2.35 ± 0.4 | – | SI = CC50/EC50 (SARS-CoV-2 [1]): >8; EC50 (SARS-CoV-2 [1]): 11.8 ± 7.45 µM; CC50 (in vitro): > 100 µM
3 | CCOC(=O)/C(O)=C/C(=O)/C=C/c1cn(-c2ccc(C(F)(F)F)cc2)c2ccccc12 [Compound 6h] | 3.11 ± 0.55 | 1.21 ± 0.16 | – | SI = CC50/EC50 (SARS-CoV-2 [1]): >21; EC50 (SARS-CoV-2 [1]): 4.69 ± 1.8 µM; IC50 (SARS-CoV-2 nsp13 [4]; 1 min after the activation of the reaction): 0.3 µM; IC50 (SARS-CoV-2 nsp13 [4]; 5 min after the activation of the reaction): 0.48 µM; IC50 (SARS-CoV-2 nsp13 [4]; 10 min after the activation of the reaction): 0.79 µM; IC50 (SARS-CoV-2 nsp13 [4]; 15 min after the activation of the reaction): 1.06 µM; IC50 (SARS-CoV-2 nsp13 [4]; 20 min after the activation of the reaction): 1.31 µM; nature of the inhibition (SARS-CoV-2 nsp13 [4]; from time-increased IC50 values): noncovalent; effect of extended preincubation of compound and enzyme on potency (SARS-CoV-2 nsp13 [4]; preincubation +20 min and +50 min at room temperature): did not lead to increasing in inhibitory potency; CC50 (in vitro): > 100 µM
4 | COc1ccc(-n2cc(C(=O)/C=C(\O)C(=O)O)c3ccccc32)cc1 [Compound 7a] | > 30 | > 30 | 68.7 | remaining activity at 30 µM (SARS-CoV-2 nsp13 [2]): 63.9%
5 | Cc1ccc(-n2cc(C(=O)/C=C(\O)C(=O)O)c3ccccc32)cc1 [Compound 7b] | 1.27 ± 0.29 | > 30 | 70.8 | Activity in enzyme assay IC50 ATPase BSA-TCEP (SARS-CoV-2 nsp13 [3]): no activity
6 | CC(C)c1ccc(-n2cc(C(=O)/C=C(\O)C(=O)O)c3ccccc32)cc1 [Compound 7c] | 0.7 ± 0.13 | > 30 | 63.9 | SI = CC50/EC50 (SARS-CoV-2 [1]): >12; EC50 (SARS-CoV-2 [1]): 8.1 ± 1.37 µM; Activity in enzyme assay IC50 ATPase BSA-TCEP (SARS-CoV-2 nsp13 [3]): no activity; CC50 (in vitro): > 100 µM
7 | O=C(O)/C(O)=C/C(=O)c1cn(-c2ccccc2)c2ccccc12 [Compound 7d] | > 30 | > 30 | 102 | remaining activity at 30 µM (SARS-CoV-2 nsp13 [2]): 75.1%
8 | O=C(O)/C(O)=C/C(=O)c1cn(-c2ccc(F)cc2)c2ccccc12 [Compound 7e] | 7.03 ± 1.94 | > 30 | 99.3 | Activity in enzyme assay IC50 ATPase BSA-TCEP (SARS-CoV-2 nsp13 [3]): no activity
9 | CCOC(=O)/C(O)=C/C(=O)c1cn(-c2ccc(OC)cc2)c2ccccc12 [Compound 8a] | 18.8 ± 0.22 | 19.06 ± 0.14 | – | –
10 | CCOC(=O)/C(O)=C/C(=O)c1cn(-c2ccc(C)cc2)c2ccccc12 [Compound 8b] | 17.5 ± 1.37 | 18.6 ± 1.14 | – | –
11 | CCOC(=O)/C(O)=C/C(=O)c1cn(-c2ccc(C(C)C)cc2)c2ccccc12 [Compound 8c] | 8.04 ± 2.1 | 15.7 ± 0.1 | – | –
12 | CCOC(=O)/C(O)=C/C(=O)c1cn(-c2ccccc2)c2ccccc12 [Compound 8d] | 13.3 ± 3.45 | 11.3 ± 0.89 | – | –
13 | CCOC(=O)/C(O)=C/C(=O)c1cn(-c2ccc(F)cc2)c2ccccc12 [Compound 8e] | 12.9 ± 0.59 | 16.4 ± 3.1 | – | –
14 | C=CCn1c(S)nnc1CSc1ccccc1[N+](=O)[O-] [SSYA10‐001] | – | – | – | EC50 (SARS-CoV-2 [5]): 81 µM; IC50 (SARS-CoV-2 nsp13 [6]): 7.5 µM
15 | CC(C)=CCc1c(O)cc(O)c2c(=O)cc(-c3ccc(O)cc3)oc12 [licoflavone C] | – | – | – | EC50 (SARS-CoV-2 [5]): > 100 µM

From article PMC12276029, “Structure−Activity Relationships of New 1‐Aryl‐1H‐Indole Derivatives as SARS‐CoV‐2 Nsp13 Inhibitors” (Chemmedchem, 2025)
